Test results from PubChem BioAssay (NCI).
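Each compound was tested at five concentrations against cells in 96-well plates for 48 hours. GI50: concentration for 50% inhibition of growth. TGI denotes the concentration required for complete inhibition of growth.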 Where a SMILES comes first, the peptide text is derived from it. [ ]: non-standard residue; d: D form. The star is where a group is joined. Cbz = O=C(OCc1ccccc1)*; Aib = CC(C)(N)C(=O)O

Key:
Assay in all cases: DTP human tumour cell line panel, 48 h
HOP-92 NSCLC = tested on: HOP-92 NSCLC
HS 578T breast = tested on: HS 578T breast
SK-MEL-2 melanoma = tested on: SK-MEL-2 melanoma
OVCAR-3 ovarian = tested on: OVCAR-3 ovarian
OVCAR-8 ovarian = tested on: OVCAR-8 ovarian
CAKI-1 renal = tested on: CAKI-1 renal
MDA-MB-231 breast = tested on: MDA-MB-231 breast
UO-31 renal = tested on: UO-31 renal
RXF 393 renal = tested on: RXF 393 renal
SN12C renal = tested on: SN12C renal
K-562 leukemia = tested on: K-562 leukemia

N=C(N)c1ccc(-c2ccc(-c3ccc(Cl)cc3Cl)s2)nc1
GI50 (HOP-92 NSCLC): 1.76 µM | TGI (HOP-92 NSCLC): 4 µM | GI50 (HS 578T breast): 2.15 µM | TGI (HS 578T breast): 4.88 µM | GI50 (SK-MEL-2 melanoma): 2.79 µM | TGI (SK-MEL-2 melanoma): 7.32 µM | GI50 (OVCAR-3 ovarian): 1.83 µM | TGI (OVCAR-3 ovarian): 3.35 µM | GI50 (OVCAR-8 ovarian): 2.51 µM | TGI (OVCAR-8 ovarian): 6.41 µM | GI50 (CAKI-1 renal): 1.71 µM | TGI (CAKI-1 renal): 3.1 µM | GI50 (MDA-MB-231 breast): 1.68 µM | TGI (MDA-MB-231 breast): 3.26 µM | GI50 (UO-31 renal): 1.57 µM | TGI (UO-31 renal): 2.93 µM | GI50 (RXF 393 renal): 1.67 µM | TGI (RXF 393 renal): 3.06 µM

CCOP(=O)(Cc1nc(C#N)c(N)o1)OCC
TGI (HOP-92 NSCLC): > 100 µM | TGI (HS 578T breast): > 100 µM | TGI (SK-MEL-2 melanoma): > 100 µM | TGI (OVCAR-3 ovarian): > 100 µM | TGI (SN12C renal): > 100 µM | TGI (CAKI-1 renal): > 100 µM | TGI (MDA-MB-231 breast): > 100 µM | TGI (K-562 leukemia): > 100 µM | TGI (RXF 393 renal): > 100 µM

CCCCCCCCCCOc1ccc(N=Nc2nnc(-c3ccc(OCCCCC)cc3)s2)cc1
TGI (HOP-92 NSCLC): > 100 µM | TGI (HS 578T breast): > 100 µM | TGI (OVCAR-3 ovarian): > 100 µM | TGI (OVCAR-8 ovarian): > 100 µM | TGI (SN12C renal): > 100 µM | TGI (CAKI-1 renal): > 100 µM | TGI (MDA-MB-231 breast): > 100 µM | TGI (K-562 leukemia): > 100 µM | TGI (RXF 393 renal): > 100 µM

ClC1=C(Cl)C2OC3C=CCC3OC2C(Cl)=C1Cl (stereo not given)
TGI (HOP-92 NSCLC): > 100 µM | TGI (HS 578T breast): 89.7 µM | TGI (SK-MEL-2 melanoma): 48.1 µM | TGI (OVCAR-3 ovarian): > 100 µM | TGI (OVCAR-8 ovarian): > 100 µM | TGI (CAKI-1 renal): > 100 µM | TGI (MDA-MB-231 breast): > 100 µM | TGI (K-562 leukemia): > 100 µM | TGI (UO-31 renal): > 100 µM | TGI (RXF 393 renal): > 100 µM

CCN(CCC#N)C(=O)Nc1ccccc1
TGI (HOP-92 NSCLC): > 100 µM | TGI (SK-MEL-2 melanoma): > 100 µM | TGI (OVCAR-3 ovarian): > 100 µM | TGI (OVCAR-8 ovarian): > 100 µM | TGI (SN12C renal): > 100 µM | TGI (CAKI-1 renal): > 100 µM | TGI (MDA-MB-231 breast): > 100 µM | TGI (K-562 leukemia): > 100 µM | TGI (UO-31 renal): > 100 µM | TGI (RXF 393 renal): > 100 µM

O=[N+]([O-])c1ccc(Nc2cccc3c2[nH]c2c(-c4ccccc4)nccc23)c([N+](=O)[O-])c1
TGI (HOP-92 NSCLC): > 100 µM | TGI (SK-MEL-2 melanoma): > 100 µM | TGI (OVCAR-3 ovarian): > 100 µM | TGI (OVCAR-8 ovarian): > 100 µM | TGI (SN12C renal): > 100 µM | TGI (K-562 leukemia): > 100 µM | TGI (UO-31 renal): > 100 µM | TGI (RXF 393 renal): > 100 µM

c1ccc(OCc2nnc(CCCCCCCCc3nnc(COc4ccccc4)o3)o2)cc1
TGI (HOP-92 NSCLC): > 100 µM | TGI (SK-MEL-2 melanoma): > 100 µM | TGI (OVCAR-3 ovarian): > 100 µM | TGI (OVCAR-8 ovarian): > 100 µM | TGI (SN12C renal): > 100 µM | TGI (CAKI-1 renal): > 100 µM | TGI (MDA-MB-231 breast): > 100 µM | TGI (K-562 leukemia): > 100 µM | TGI (UO-31 renal): > 100 µM | TGI (RXF 393 renal): 30.8 µM

O=S(=O)(O)c1cc(N=[N+]([O-])c2ccc(N=Nc3ccccc3)cc2S(=O)(=O)O)ccc1/C=C/c1ccc(N=[N+]([O-])c2ccc(N=Nc3ccccc3)cc2S(=O)(=O)O)cc1S(=O)(=O)O
TGI (HOP-92 NSCLC): > 100 µM | TGI (SK-MEL-2 melanoma): > 100 µM | TGI (OVCAR-3 ovarian): > 100 µM | TGI (OVCAR-8 ovarian): > 100 µM | TGI (SN12C renal): > 100 µM | TGI (K-562 leukemia): > 100 µM | TGI (UO-31 renal): > 100 µM | TGI (RXF 393 renal): > 100 µM

CC(C)(NC(=O)C(C)(C)NC(=O)OCc1ccccc1)C(=O)O (Cbz-[Aib]-[Aib]-OH)
TGI (HOP-92 NSCLC): > 100 µM | TGI (HS 578T breast): > 100 µM | TGI (SK-MEL-2 melanoma): > 100 µM | TGI (OVCAR-3 ovarian): > 100 µM | TGI (OVCAR-8 ovarian): > 100 µM | TGI (SN12C renal): > 100 µM | TGI (CAKI-1 renal): > 100 µM | TGI (MDA-MB-231 breast): > 100 µM | TGI (K-562 leukemia): > 100 µM | TGI (UO-31 renal): > 100 µM

Nc1ncc2c(n1)-c1ccccc1OC2
TGI (HOP-92 NSCLC): > 100 µM | TGI (SK-MEL-2 melanoma): > 100 µM | TGI (OVCAR-3 ovarian): > 100 µM | TGI (OVCAR-8 ovarian): > 100 µM | TGI (SN12C renal): > 100 µM | TGI (K-562 leukemia): > 100 µM | TGI (UO-31 renal): > 100 µM | TGI (RXF 393 renal): > 100 µM

CCOC(=O)Cc1cc(=O)[nH]c(-n2[nH]c(C)c(CCO)c2=O)n1
TGI (HS 578T breast): > 100 µM | TGI (SK-MEL-2 melanoma): > 100 µM | TGI (OVCAR-3 ovarian): > 100 µM | TGI (OVCAR-8 ovarian): > 100 µM | TGI (SN12C renal): > 100 µM | TGI (CAKI-1 renal): > 100 µM | TGI (MDA-MB-231 breast): > 100 µM | TGI (K-562 leukemia): > 100 µM | TGI (UO-31 renal): > 100 µM | TGI (RXF 393 renal): > 100 µM
